From patent US10149876B2, “Tripterygium wilfordii extracts to overcome chemotherapy resistance” (WESTERN UNIVERSITY OF HEALTH SCIENCES, priority 2012, dated 2018)
“And” between values parts separate entries of the source, which are not always exact repeats. Equal values may be shown once.

Tested on: SkBr3 cells
Assay: SRB cell viability assay, lapatinib-sensitive SkBr3 cells
Assay type: cell-based, human
Conditions: for mean A at 565 nm: no chemosensitizing pre-treatment, background = 0.047
Experimental: Cell culture of the above cell lines was performed as described in Example 2, except that 5,000, rather than 3,000 cells were plated per well for the K562, K562/Dox, BT474, SkBr3 lines.
Table 17 also contains the serially-diluted concentrations of drugs that each cell line was tested against.
FIG. 13 summarizes the data of Tables 32-33 in a graphical format.

CS(=O)(=O)CCNCc1ccc(-c2ccc3ncnc(Nc4ccc(OCc5cccc(F)c5)c(Cl)c4)c3c2)o1 [lapatinib]
IC50 (Homo sapiens, SK-BR-3, read-out: IC50 of drug when cells treated with drug only): 241 nM and 0.14 µg/mL | mean A at 565 nm (Lapatinib 0.001 μM): 2.203 | mean A at 565 nm (Lapatinib 0.067 μM): 1.707 | mean A at 565 nm (Lapatinib 0.2 μM): 1.314 | mean A at 565 nm (Lapatinib 0.67 μM): 0.708 | mean A at 565 nm (Lapatinib 2 μM): 0.347 | mean A at 565 nm (Lapatinib 6.7 μM): 0.211 | mean A at 565 nm (Lapatinib 20 μM): 0.221
